Assay results: US20240417410A1, “TRICYCLIC COMPOUNDS FOR THE TREATMENT OF CANCER” (Hoffmann-La Roche Inc., priority 2023, published 2024)

Columns and labels:
AGS cells (KRAS G12D) = experiment: Cell viability assay (Cell Counting Kit-8, 3-day); format: cell-based, human; conditions: Homo sapiens, 72 h, 72 hrs incubation
Protocol: (§1) The purpose of this cellular assay was to determine the effects of test compounds on the proliferation of human cancer cell lines NCI-H358 (ATCC-CRL5807) cells, AGS (ATCC-CRL-1739) cells, SW620 (ATCC-CCL-227) over a 3-day treatment period by quantifying the amount of NADPH present at endpoint using Cell Counting Kit-8.
(§2) Cells were seeded at 5,000 cells/well (NCI-H358), 2,000 cells/well (AGS) 2,000 cells/well (SW620) in 96-well assay plates (Corning-3699) and incubated overnight. On the day of the assay, diluted compounds were then added in a final concentration of 0.5% DMSO. After 72 hrs incubation, a tenth of the volume of cell counting kit 8 (Dnjindo-CK04) was added into each well. Read the signal (OD450 minus OD650) using EnVision after 2 hrs incubation. IC50 was determined by fitting a 4-parameter sigmoidal concentration response model.

[1] = test system: NCI-H358 cells (KRAS G12C); experiment: Cell viability assay (Cell Counting Kit-8, 3-day); format: cell-based, human; conditions: Homo sapiens, NCI-H358, 72 h, NCI-H358, 72 hrs incubation
Protocol: as §1, §2

SW620 cells (KRAS G12V) = experiment: Cell viability assay (Cell Counting Kit-8, 3-day); format: cell-based, human; conditions: Homo sapiens, SW-620; SW620, 72 hrs incubation
Protocol: as §1, §2

KRAS G12C-BRAF complex = KRAS G12C-BRAF complex (Homo sapiens (Human), UniProt P01116+P62937, G12C); experiment: KRAS-BRAF with CYPA (500 nM) interaction assay (TR-FRET, Example 136); format: biochemical; conditions: KRAS G12C-BRAF disruption
Protocol: In this example, TR-FRET was also used to measure the compound or compound-CYPA dependent disruption of the KRAS G12C-BRAF complex. This protocol was also used to measure disruption of KRAS G12D or KRAS G12V binding to BRAF by a compound of the invention, respectively. In assay buffer containing 25 mM HEPES PH=7.4 (4-(2-hydroxyethyl)-1-piperazineethanesulfonic acid, Thermo, 15630080), 0.002% Tween20, 0.1% BSA, 100 mM NaCl, 5 mM MgCl2, 10 μM GMPPNP (Guanosine 5′-[β,γ-imido]triphosphate trisodium salt hydrate, Sigma, G0635), […] 384-well assay plate at final concentrations of 50 nM, 6.25 nM and 1 nM, respectively. Compound was present in plate wells as a 16-point 3-fold dilution series starting at a final concentration of 10 μM and incubated for 3 hours. A mixture of MAb Anti-6His-XL665 (Cisbio, 61HISXLB) and Mab anti-GST-TB cryptate (Cisbio, 61GSTTLB) was then added at a final concentration of 6.67 nM and 0.21 nM, respectively, and the plate was incubated for an additional 1.5 hours. TR-FRET signal was read on a PHERstar FSX microplate reader (Ex320 nm, Em 665/615 nm). Compounds that facilitate disruption of the KRAS-BRAF complex were identified as those eliciting a decrease in the TR-FRET ratio relative to DMSO control wells.

[2] = test system: phosphorylation of ERK, KRAS G12C in NCI-H358 cells; experiment: pERK inhibition assay; format: cell-based; conditions: Homo sapiens, NCI-H358, 4 h
In short: (§3)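 Phospho-ERK quantified by in-cell ELISA with TMB read-out at OD450 following 4 h compound exposure (final 0.5% DMSO). Cell lines were SW620 (KRAS G12V), AGS (G12D) and NCI-H358 (G12C), grown in RPMI-1640 with 10% FBS. A 4-parameter sigmoidal model gave the IC50.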

[3] = test system: phosphorylation of ERK, KRAS G12D in AGS cells; experiment: pERK inhibition assay; format: cell-based; conditions: Homo sapiens, AGS, 4 h
In short: as §3

[4] = test system: phosphorylation of ERK, KRAS G12V in SW620; experiment: pERK inhibition assay; format: cell-based; conditions: Homo sapiens, SW-620, 4 h, SW620 cells
In short: as §3

Chain of KRAS G12C-BRAF complex (P01116-2 other isoform, or with tags, fused parts or gaps G12C): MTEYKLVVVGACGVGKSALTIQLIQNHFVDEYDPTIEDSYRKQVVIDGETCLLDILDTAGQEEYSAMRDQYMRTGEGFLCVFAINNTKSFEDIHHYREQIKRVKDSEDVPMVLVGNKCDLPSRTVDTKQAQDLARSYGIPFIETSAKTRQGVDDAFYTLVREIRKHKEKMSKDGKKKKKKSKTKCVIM
Chain of KRAS G12C-BRAF complex (P62937 whole entry): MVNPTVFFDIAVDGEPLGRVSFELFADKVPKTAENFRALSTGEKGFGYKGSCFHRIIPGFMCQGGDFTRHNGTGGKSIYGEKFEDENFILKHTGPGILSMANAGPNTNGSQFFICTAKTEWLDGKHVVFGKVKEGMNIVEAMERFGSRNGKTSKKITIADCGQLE

Row | Structure (SMILES) | IC50 (AGS cells (KRAS G12D)) | IC50 [1] | IC50 (SW620 cells (KRAS G12V)) | IC50 (KRAS G12C-BRAF complex) | IC50 [2] | IC50 [3] | IC50 [4]
1 | CO[C@@H](C)c1ncc(N2CCN(CC(F)(F)F)CC2)cc1-c1c2c3cc(cc4c3n1CCC4)-c1csc(n1)C[C@H](NC(=O)[C@H]1[C@@H]3COC[C@@H]31)C(=O)N1CCC[C@H](N1)C(=O)OCC(C)(C)C2 (atropisomer, axis not shown; (M)) [Example 13, (1S,5R,6r)-N-[(7S,13S)-(20M)-20-[2-[(1S)-1-methoxyethyl]-5-[4-(2,2,2-trifluoroethyl)piperazin-1-yl]-3-pyridyl]-17,17-dimethyl-8,14-dioxo-15-oxa-4-thia-9,21,30,31-tetrazahexacyclo[23.3.1.1^2,5.1^9,13.0^19,27.0^21,26]hentriaconta-1 (28),2,5 (31),19,25 (29),26-hexaen-7-yl]-3-oxabicyclo[3.1.0]hexane-6-carboxamide] | 23 nM | 6.4 nM | 0.7 nM | 1.5 nM | 3 nM | 10.8 nM | 1.5 nM
2 | CCN1CCN(c2cnc([C@H](C)OC)c(-c3c4c5cc(cc6c5n3CCC6)-c3csc(n3)C[C@H](NC(=O)[C@H]3[C@H](C)[C@@H]3C)C(=O)N3CCC[C@H](N3)C(=O)OCC(C)(C)C4)c2)CC1 (atropisomer, axis not shown; (M)) [Example 113, (1r,2R,3S)-N-[(7S,13S)-(20M)-20-[5-(4-ethylpiperazin-1-yl)-2-[(1S)-1-methoxyethyl]-3-pyridyl]-17,17-dimethyl-8,14-dioxo-15-oxa-4-thia-9,21,30,31-tetrazahexacyclo[23.3.1.1^2,5.1^9,13.0^19,27.0^21,26]hentriaconta-1 (28),2,5 (31), 19,25 (29),26-hexaen-7-yl]-2,3-dimethyl-cyclopropanecarboxamide] | 1.5 nM | 2.1 nM | 0.3 nM | 4.3 nM | 0.6 nM | 2.2 nM | 0.4 nM
3 | CO[C@@H](C)c1ncc(N2CCN(C)CC2)cc1-c1c2c3cc(cc4c3n1CCO4)-c1csc(n1)C[C@H](NC(=O)C1CC1c1ccc(F)cc1)C(=O)N1CCC[C@H](N1)C(=O)OCC(C)(C)C2 (stereo partly drawn) [Example 59, 2-(4-fluorophenyl)-N-[(7S,13S)-(20M)-20-[2-[(1S)-1-methoxyethyl]-5-(4-methylpiperazin-1-yl)-3-pyridyl]-17,17-dimethyl-8,14-dioxo-15,24-dioxa-4-thia-9,21,30,31-tetrazahexacyclo[23.3.1.1^2,5.1^9,13.0^19,27.0^21,26]hentriaconta-1 (29),2,5 (31),19,25,27-hexaen-7-yl]cyclopropanecarboxamide] | 87.2 nM | 33.7 nM | 7.4 nM | 16.7 nM | 8.8 nM | 21.3 nM | 3 nM
4 | CO[C@@H](C)c1ncc(N2CCN(C)CC2)cc1-c1c2c3cc(c(F)c4c3n1CCC4)-c1csc(n1)C[C@H](NC(=O)[C@H]1[C@H](C)[C@@H]1C)C(=O)N1CCC[C@H](N1)C(=O)OCC(C)(C)C2 (atropisomer, axis not shown; (M)) [Example 124, (1r,2S,3R)-N-[(7S,13S)-29-fluoro-(20M)-20-[2-[(1S)-1-methoxyethyl]-5-(4-methylpiperazin-1-yl)-3-pyridyl]-17,17-dimethyl-8,14-dioxo-15-oxa-4-thia-9,21,30,31-tetrazahexacyclo[23.3.1.1^2,5.1^9,13.0^19,27.0^21,26]hentriaconta-1 (28),2,5 (31), 19,25 (29),26-hexaen-7-yl]-2,3-dimethyl-cyclopropanecarboxamide] | 13.8 nM | 8.9 nM | 1.6 nM | 16.2 nM | 1.4 nM | 15.7 nM | 0.7 nM
5 | CO[C@@H](C)c1ncc(N2CCOCC2)cc1-c1c2c3cc(cc4c3n1CCO4)-c1csc(n1)C[C@H](NC(=O)[C@H]1C[C@@H]1c1cncnc1)C(=O)N1CCC[C@H](N1)C(=O)OCC(C)(C)C2 (atropisomer, axis not shown; (M)) [Example 88, (1S,2S)-N-[(7S,13S)-(20M)-20-[2-[(1S)-1-methoxyethyl]-5-morpholino-3-pyridyl]-17,17-dimethyl-8,14-dioxo-15,24-dioxa-4-thia-9,21,30,31-tetrazahexacyclo[23.3.1.1^2,5.1^9,13.0^19,27.0^21,26]hentriaconta-1 (28),2,5 (31), 19,25 (29),26-hexaen-7-yl]-2-pyrimidin-5-yl-cyclopropanecarboxamide] | 4 nM | 2 nM | 0.4 nM | 9.7 nM | 0.3 nM | 1.4 nM | 0.2 nM
6 | CO[C@@H](C)c1ncc(N2CCN(C)CC2)cc1-c1c2c3cc(cc4c3n1CCC4)-c1csc(n1)C[C@H](NC(=O)[C@H]1C[C@H]1C)C(=O)N1CCC[C@H](N1)C(=O)OCC(C)(C)C2 (atropisomer, axis not shown; (M)) [Example 33, (1S,2R)-N-[(7S,13S)-(20M)-20-[2-[(1S)-1-methoxyethyl]-5-(4-methylpiperazin-1-yl)-3-pyridyl]-17,17-dimethyl-8,14-dioxo-15-oxa-4-thia-9,21,30,31-tetrazahexacyclo[23.3.1.1^2,5.1^9,13.0^19,27.0^21,26]hentriaconta-1 (28),2,5 (31),19,25 (29),26-hexaen-7-yl]-2-methyl-cyclopropanecarboxamide] | 100 nM | 32.3 nM | 7.4 nM | 19.5 nM | 8.5 nM | 23.1 nM | 2.7 nM
7 | CO[C@@H](C)c1ncc(N2CCOCC2)cc1-c1c2c3cc(cc4c3n1[C@@H](C)CO4)-c1csc(n1)C[C@H](NC(=O)[C@H]1C[C@@H]1C)C(=O)N1CCC[C@H](N1)C(=O)OCC(C)(C)C2 (atropisomer, axis not shown; (M)) [Example 53, (1S,2S)-N-[(7S,13S,22S)-(20M)-20-[2-[(1S)-1-methoxyethyl]-5-morpholino-3-pyridyl]-17,17,22-trimethyl-8,14-dioxo-15,24-dioxa-4-thia-9,21,30,31-tetrazahexacyclo[23.3.1.1^2,5.1^9,13.0^19,27.0^21,26]hentriaconta-1 (28),2,5 (31), 19,25 (29),26-hexaen-7-yl]-2-methyl-cyclopropanecarboxamide] | – | – | – | 65.7 nM | 21.2 nM | 176 nM | 24.5 nM
8 | CO[C@@H](C)c1ncc(N2CCN(CC(F)(F)F)CC2)cc1-c1c2c3cc(cc4c3n1CCC4)-c1csc(n1)C[C@H](NC(=O)[C@H]1C[C@@H]1C)C(=O)N1CCC[C@H](N1)C(=O)OCC(C)(C)C2 (atropisomer, axis not shown; (M)) [Example 3, (1S,2S)-N-[(7S,13S)-(20M)-20-[2-[(1S)-1-methoxyethyl]-5-[4-(2,2,2-trifluoroethyl)piperazin-1-yl]-3-pyridyl]-17,17-dimethyl-8,14-dioxo-15-oxa-4-thia-9,21,30,31-tetrazahexacyclo[23.3.1.1^2,5.1^9,13.0^19,27.0^21,26]hentriaconta-1 (28),2,5 (31), 19,25 (29),26-hexaen-7-yl]-2-methyl-cyclopropanecarboxamide] | – | – | – | 31.4 nM | 5.1 nM | 24.3 nM | 3.6 nM
